{"source": "patent US10035780B2", "about": "“Quinazoline scaffold based compounds, pharmaceutical compositions and methods of use thereof” (TECHNION RESEARCH & DEVELOPMENT FOUNDATION LTD., priority 2014, dated 2018)", "key": {"U118MG cells": {"system": "U118MG cells", "assay": "Protection against cell death induced by glutamate in U118MG cell culture", "format": "cell-based, human", "description": "Cell cultures of various human glial type cell lines (T98G, U87MG, A172, U118MG), as well as human neuronal type cell lines SH-SY 5Y and Be(2)-C were used to test the new compounds. In addition, the rat glioma cell line C6 was used. PC12 cells originating from rats were used as another cell line displaying neuronal characteristics. The applicants also have produced, by genetic manipulation, a modified rat C6 glial cell strain and a modified human U118MG glial type cell strain, both under-expressing the TSPO, which allows to study TSPO specific effects, including of the compounds of the invention, which can be done according to methods described previously (Weisinger et al. Biochemistry. 2004; 43:12315-21; Levin et al. 2005; Zeno et al., 2009).\nThe protective capabilities of the compounds of the invention and involvement of the TSPO were tested in cell culture, using cell lines of glial and neuronal type, cultured and testing according to standard methods (Kugler et al. 2008; Zeno et al. 2009; Dadon-Nachum et al. Stem Cell Rev. 2011; 7:664-71). Furthermore, primary cell cultures are also used (Banker, G. et al. Culturing Nerve Cells, 2nd Edition, The MIT Press (1998). Treatments included: (1) exposure to glutamate (35 mM), Abeta(1-42), NH4Cl, CoCl2, and nitric oxide (NO) donors, in order to mimic particular aspects of neurodegeneration; (2) treatment with the novel compounds and with traditional TSPO ligands as comparative treatment; and (3) TSPO knockdown by genetic manipulation.\nTechniques and parameters assayed are summarized here: Total protein levels (Bradford. Anal Biochem. 1976; 72:248-54); TSPO ligand binding assays (Kugler et al. 2008; Levin et al. 2005; Danovich et al. Eur Neuropsychopharmacol. 2008; 18:24-33) cell death, including apoptosis and necrosis and related molecular biological processes (Soustiel et al. Neuropathol Appl Neurobiol. 2008; 34:412-23; Soustiel et al. Exp Neurol. 2008; 214:201-8; Zeno et al. 2009); mitochondrial transmembrane potential collapse (Chelli et al. Biochem Pharmacol. 2004; 68:125-34; Kugler et al. 2008; Zeno et al., 2009; Shargorodsky et al. Apoptosis. 2012; 17:647-65), reactive oxygen species (ROS) generation as a measure of oxidative stress (Veenman et al. 2008; Zeno et al. 2009); TSPO knockdown (Levin et al. 2005; Zeno et al. 2009); expression levels of mitochondrial TSPO and associated proteins (Veenman et al. 2002; Levin et al. 2005; Veenman et al. 2008); gene expression with RT-PCR and microarray analysis (Bode et al. 2012; Veenman et al. 2012). Parameters of inflammation, immune response, migration, and the cell cycle are also tested. All these approaches can also be applied for quality control of the compounds.\nThe compounds of the invention protect against cell death induced by glutamate in cell culture of U118MG cells of astrocytic origin (FIGS. 1, 2, 3 and 8) or SH SY 6Y cells of neuronal origin (FIG. 4). […] In the control group, 35 mM of glutamate killed ˜60% of the cells.\nThe experimental setup is explained using FIG. 8B as an example: • 1. Control: Cell death levels are taken as 0% • 2. Glu: Cell death levels induced by glutamate are over 50% • 3. […] Glu+Cpd 5: When Cpd 5 is given as a treatment to counteract cell death induced by glutamate, increasing concentrations of Cpd 5 reduce cell death levels from over 50% to less than 5%."}, "[1]": {"assay": "Pharmacokinetic properties in the mouse after i.p. administration", "format": "in vivo"}, "R6-2 mice": {"system": "R6-2 mice", "assay": "Lifespan of R6-2 mice, transgenic model for Huntington Disease", "format": "in vivo, mouse", "details": "daily s.c. injections 5 days a week from week 5, vs DMSO and saline", "from_the_text": "For the assays described herein systemic injections of kainic in rats were applied and also contusion (Veenman et al. 2002; Soustiel et al. Neuropathol Appl Neurobiol. 2008; Soustiel et al. Exp Neurol. 2008). These models present very well defined cell death in the brain. Cell death in the brain is the major pathological characteristic of progressing neurodegeneration common to brain diseases. As the compounds of the present invention are designed to prevent cell death in the brain as a consequence of disease and progressing brain damage after injury, including behavioral impairments, animal models displaying cell death in the brain are the models of choice for displaying the protective capabilities of the compounds of the invention. For these reasons the R6-2 model for Huntington Disease was chosen to test the effectiveness of Compound 1 and to compare the effectiveness of Compound 1 with those of the compound of U.S. Pat. No. 8,541,428 (Cpd A) and with the classical TSPO ligand PK 11195, as well as other compounds disclosed herein. Compounds 5 and 6 were also tested in the same R6-2 model.\nR6-2 is a transgenic mouse model for Huntington Disease. Huntington Disease in humans is a hereditary neurodegenerative disease affecting motor performance and finally leading to death of the patients having the disease. R6-2 mice (˜120 CAG repeats B6CBA-Tg(HDexon1)62 Gpb/3J) mice were used for the experiments described below. For this purpose, mice obtained from the Jackson Laboratory (ME) were bred. In particular: males genotype: Hemizygous for Tg(HDexon1)62 Gpb, and females from the wildtype background strain B6CBAF1/J were bred according to the protocol of Jackson Laboratory. The male heterozygote offspring (R6-2 mice) were used for determining life span and motor activity, with and without drug treatment. Drug treatment consisted of daily (5 continuous days a week) subcutaneous injections of mice with 20 μl of: saline (sham control), vehicle DMSO (vehicle control), classic TSPO ligand PK 11195 (15 mg/kg), prior art Compound A (15 mg/kg), Compound 1 (15 mg/kg), and compound 1 (7.5 mg/kg). Drug treatment started on week 5 after birth. Quantities were used according to previous studies regarding TSPO ligands.\nApart from the behavioral experiments, mice were observed daily, and the day of death was noted. Behavioral experiments included distance covered in an open field apparatus, and tremor measurements.\nR6-2 mice were used as previously described in Example 5. In one experiment, treatment consisted of daily (5 continuous days per week) subcutaneous injections of mice with 20 μl of vehicle DMSO (control, n=10) and Compound 6 (7.5 mg/kg, n=12). In a separate experiment, compound 5 (7.5 mg/kg, n=5) was tested, compared to DMSO control (n=5)."}}, "note": "Entries after “also recorded” stand apart in the source; their conditions may differ.", "data": [{"smiles": "CCN(C)C(=O)Oc1nc(-c2ccccc2)nc2ccccc12", "note": "[Compound 1, 2-phenylquinazolin-4-yl ethyl(methyl)carbamate]", "values": [{"measurement": "protection against cell death induced by glutamate", "setting": "U118MG cells; U118MG cells, 35 mM glutamate, compound 1-100 μM", "value": "significantly protects; also recorded: protect better and more consistently; also recorded: significantly reduces glutamate-induced cell death levels"}, {"measurement": "Protection against glutamate-induced cell death", "setting": "U118MG cells; cell culture, grade in words", "value": "Excellent"}, {"measurement": "lethal effect of compound by itself", "setting": "U118MG cells; compound alone, no glutamate", "value": "only very little lethal effect by itself"}, {"measurement": "distribution to the brain", "setting": "[1]", "value": "quite quickly distributed to the brain"}, {"measurement": "Kp", "setting": "[1]; brain, ip, read-out: Uptake ratio to the brain", "value": 0.2}, {"measurement": "half-life", "setting": "[1]; in vivo, ip", "value": 3.5, "unit": "h"}, {"measurement": "effect on lifespan", "setting": "R6-2 mice", "value": "increases average lifespan; also recorded: extends the life span"}, {"measurement": "effect on lifespan", "setting": "R6-2 mice; listed as compound 1", "value": "enhanced lifespan"}]}]}
